Data published in PubChem BioAssay (NCI).
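Assay format: 96-well plates, 48-hour exposure. GI50 = concentration required for 50% inhibition of growth. At the TGI there is no net growth.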

Key:
Experiment in all cases: NCI tumour cell line growth inhibition, 48 h
A549 NSCLC = tested on: A549 NSCLC
DU-145 prostate = tested on: DU-145 prostate
HCC-2998 colon = tested on: HCC-2998 colon
LOX IMVI melanoma = tested on: LOX IMVI melanoma
NCI-H226 lung = tested on: NCI-H226 lung
NCI-H23 lung = tested on: NCI-H23 lung
NCI-H522 lung = tested on: NCI-H522 lung
OVCAR-4 ovarian = tested on: OVCAR-4 ovarian
RXF 393 renal = tested on: RXF 393 renal
SK-MEL-5 melanoma = tested on: SK-MEL-5 melanoma

SMILES	GI50 (A549 NSCLC)	TGI (A549 NSCLC)	GI50 (DU-145 prostate)	TGI (DU-145 prostate)	GI50 (HCC-2998 colon)	TGI (HCC-2998 colon)	GI50 (LOX IMVI melanoma)	TGI (LOX IMVI melanoma)	GI50 (NCI-H226 lung)	TGI (NCI-H226 lung)	GI50 (NCI-H23 lung)	TGI (NCI-H23 lung)	GI50 (NCI-H522 lung)	TGI (NCI-H522 lung)	GI50 (OVCAR-4 ovarian)	TGI (OVCAR-4 ovarian)	GI50 (RXF 393 renal)	TGI (RXF 393 renal)	GI50 (SK-MEL-5 melanoma)	TGI (SK-MEL-5 melanoma)
Cc1cc2c3ccc(C)[n+](C)c3ccc2n1C	0.46 µM	9.3 µM	5.09 µM	51.5 µM	2.6 µM	19.8 µM	5.05 µM	30.2 µM	12.9 µM	49.8 µM	2.04 µM	29.2 µM	4.83 µM	29.3 µM	4.18 µM	30.1 µM	4.01 µM	44.2 µM	3.65 µM	14.8 µM
O=C(O)C/C=C/CC(=O)O	–	> 100 µM	–	> 100 µM	–	> 100 µM	–	> 100 µM	–	> 100 µM	–	> 100 µM	–	> 100 µM	–	> 100 µM	–	> 100 µM	–	> 100 µM
COC(=O)C(Cc1ccccc1)NC(=O)NC(=O)NC(=O)CI (stereo not given)	20.2 µM	38.9 µM	12.1 µM	25.3 µM	17.2 µM	33.3 µM	1.56 µM	3.23 µM	11.1 µM	39.3 µM	6.79 µM	28.2 µM	1.61 µM	3.38 µM	4.41 µM	24.4 µM	7.75 µM	20.2 µM	15.5 µM	29 µM
C=CC(=O)Nc1cccc(C)c1Nc1cc(-c2cccnc2Cc2c(C)c(OC)cc(OC)c2C)ncn1	16.2 µM	> 100 µM	16.7 µM	> 100 µM	16 µM	30.6 µM	6.12 µM	19.8 µM	10.5 µM	63 µM	12.7 µM	47.3 µM	11.6 µM	36.2 µM	20.6 µM	> 100 µM	2.52 µM	7.89 µM	10.7 µM	23.5 µM
O=C1C=C(Br)c2c(-c3ccccc3)oc3cccc1c23	–	> 100 µM	–	> 100 µM	–	> 100 µM	–	> 65.4 µM	–	> 100 µM	–	> 100 µM	–	> 100 µM	–	> 100 µM	–	> 83.9 µM	–	> 100 µM
Nc1ncnc2[nH]ncc12	1.72 µM	> 66.8 µM	0.358 µM	18 µM	0.251 µM	4.85 µM	0.34 µM	> 41 µM	4.04 µM	> 100 µM	1.59 µM	38.1 µM	0.649 µM	9.48 µM	0.277 µM	37.9 µM	0.86 µM	> 28.6 µM	4.18 µM	24.5 µM
COc1ccc(-c2cc(-c3ccccc3)nc(SCCCC(=O)NO)n2)cc1	1.74 µM	8.45 µM	1.06 µM	9.58 µM	1.7 µM	3.81 µM	0.24 µM	1.95 µM	1.68 µM	6.08 µM	1.51 µM	4.75 µM	0.808 µM	4.32 µM	1.26 µM	9.01 µM	0.338 µM	1.4 µM	1.26 µM	2.75 µM
O=C(N/N=C/c1ccc2c(c1)CCC2)c1ccccc1O	–	57.5 µM	–	> 100 µM	–	28.3 µM	–	> 100 µM	–	77.7 µM	–	82.2 µM	–	61.1 µM	–	60.2 µM	–	62 µM	–	> 100 µM
